The values that follow come from patent US10620215B2, “Real-time imaging sensor for measuring cellular thiol level” (CELL2IN, INC., priority 2014, dated 2020).

Test [1] is described as follows: Chemical equilibrium constant (Kd) and fluorescence ratio response of the tracer with glutathione (GSH) in vitro. It counts as binding. Conditions: equilibration with GSH. On the procedure:
(§1) A buffer (10 mM phosphate, 150 mM NaCl, pH 7.4, H2O:DMSO=98:2) containing a mixture of a thiol compound (0-200 mM) and a FreSH-tracer (10 μM) was prepared, and the time-dependent UV-Vis absorption spectrum and fluorescence emission spectrum of the buffer were measured with S-3100 spectrophotometer and Hitachi F-7000 spectrophotometer. For preparation of buffers for use in in vitro experiments at pHs of pH 4, 5, 9 and 10, acetate and CHES (2-(cyclohexylamino)ethanesulfonate) were used instead of phosphate.
(§2) After a chemical equilibrium between the thiol compound (0-200 mM) and the FreSH-tracer was formed by an in vitro reaction, the emission spectrum of fluorescence emitted upon excitation with light at a wavelength of 430 nm was measured. The relationship between the fluorescence intensity at the maximum emission wavelength (580 nm) and the concentration of the thiol compound was analyzed by non-linear regression to determine the chemical equilibrium constant (Kd) between the thiol compound and the FreSH-tracer.

Test [2] is described as follows: Chemical equilibrium constant (Kd) of the tracer with β-mercaptoethanol, from fluorescence emission after equilibration. It counts as binding. The procedure:
as §1, §2

In another test the test system is RAW264.7. As to the kind of experiment: Level of thiols in RAW264.7 macrophages after NADPH oxidase activation, by FreSH-tracer F510/F580 ratio. Format: cell-based. Conditions: PMA treatment for 10-20 minutes; returned to basal level after 40-50 minutes. On the procedure:
(§3) HeLa and RAW264.7 cells were cultured in DMEM (containing 10% heat-inactivated FBS (Hyclone), 100 U/ml of penicillin, 100 μg/ml of streptomycin sulfate and 2 mM glutamine and free of phenol red). HeLa (1.8×10^5 cells/dish) and RAW264.7 (2×10^5 cells/dish) were seeded in 35 mm cover glass bottom dishes (SPL Life Sciences), and then cultured under the conditions of 37° C. and 5% CO2 for the indicated time. Before observation using a fluorescence microscope, the HeLa cells were incubated with 2 mL of a medium containing 5 μM of the FreSH-tracer HeLa for 2 hours, and the RAW264.7 cells were incubated for 4 hours. Real-time images of the cells were acquired using a Nikon A1 laser scanning confocal microscope. The imaging test was 2 performed while the cells were incubated under the conditions of 37° C. and 5% CO2 in a chamber mounted in a Nikon ECLIPSE Ti inverted microscope equipped with CFI Plan apochromat 60× and 1.40 numerical aperture (NA) objective lenses. The FreSH-tracer was excited with laser beams at 403 nm and 488 nm, and the fluorescence of the tracer was detected through filters with 500-550 nm and 570-620 nm band intervals. Using NIS-Elements AR software, the experimental data were analyzed and the ratio of fluorescence was imaged.
ROS that are generated by phagocytic NADPH oxidase (Phox) activity are essential defense substances that kill invasive microorganisms. […]

The test system of the next test is HeLa cells. In words: Level of thiols / reduced GSH in living HeLa cells, by FreSH-tracer fluorescence intensity ratio. It counts as cell-based. The conditions noted are these: treatment with GSH-related enzyme inhibitor. On the procedure: as §3, with “imaged. […]” for “imaged.”

Broadly, the Kd is the free concentration of one partner at which half of the binding sites on the other are occupied at equilibrium, for simple one-to-one binding. For the molecule `CC(=O)OCOC(=O)CC[C@H](NC(=O)C1CCN(C(=O)C(C#N)=Cc2cc3cc4c5c(c3oc2=O)CCCN5CCC4)CC1)C(=O)OCOC(C)=O` [formula 7], the equilibrium dissociation constant (Kd) in test [1] is 3.7 ± 0.2 mM.

Take `CN(C)C(=O)C(C#N)=Cc1cc2cc3c4c(c2oc1=O)CCCN4CCC3` [formula 2]: binding in test [2] was put at a Kd of 12 ± 1 mM.

On to `N#CC(=Cc1cc2cc3c4c(c2oc1=O)CCCN4CCC3)C(=O)N1CCC(C(=O)NCC[P+](c2ccccc2)(c2ccccc2)c2ccccc2)CC1` [formula 5], for which, in test [2], the Kd turned out to be 2.2 ± 0.1 mM.

Consider `CCOC(=O)CNC(=O)C(C#N)=Cc1cc2cc3c4c(c2oc1=O)CCCN4CCC3` [formula 3], for which, in test [2], the equilibrium dissociation constant (Kd) was determined as 14 ± 1 mM.

As to `CCCCCCCCCCCCCC(=O)O[C@@H]1[C@@H](C)[C@@]2(O)[C@@H](C=C(CO)C[C@]3(O)C(=O)C(C)=C[C@@H]23)[C@@H]2C(C)(C)[C@]12OC(C)=O` [PMA, phorbol 12-myristate 13-acetate], in the test with RAW264.7, the “level of thiols in the cells” value is recorded as “reduced”.

Consider `CCCCS(=N)(=O)CCC(N)C(=O)O` (centres unmarked) [BSO, buthionine sulphoximine], for which the “fluorescence intensity ratio of the sensor (level of reduced GSH) in HeLa cells” value in the test on HeLa cells is “reduced”.

On to `CC(=O)OCOC(=O)C1CCN(C(=O)C(C#N)=Cc2cc3cc4c5c(c3oc2=O)CCCN5CCC4)CC1` [formula 4], for which the dissociation constant (Kd) in test [1] was 2.8 ± 0.4 mM.

For `CCN(CC)c1ccc2cc(C=C(C#N)C(=O)N(C)C)c(=O)oc2c1` [formula 8], in test [2], binding was put at a Kd of 2.2 ± 0.1 mM.
